Results: article PMC12555100, “Dextromethorphan Versus Dextrorphan: A Quantitative Comparison of Antitussive Potency Following Separate Administration of Metabolite” (Journal of Clinical Pharmacology, 2025)
In brackets after ≈: the same amount, converted by molar mass. Read-outs that look alike come from different tables or passages of the source.

Legend:
[1] = Plasma concentrations of DEX and unconjugated DOR (HPLC), model-independent pharmacokinetics; type: in vivo, human; conditions: for 24‐h plasma concentration: almost all subjects (except in 2 cases); for AUC / Cmax / Tmax: both sexes, human, oral
Description: The clinical trial has been performed according to the Declaration of Helsinki and was approved by the North Sheffield Research and Ethics Committee (approval number NS98/183). All participants enrolled into the clinical trial have given informed consent. Data were collected from twenty‐three healthy non‐smoker volunteers (12 male) aged 19‐51 years who took part in a double‐blind randomized placebo controlled cross‐over study. […] The exclusion criteria were respiratory tract infection or acute cough within the last 4 weeks, receiving any medication within previous 2 weeks, and any medical condition which may interfere with the study. Preceding the visit day, the volunteer was asked to fast for 8 h, abstain from alcohol, and abstain from caffeinated drinks throughout the study day. Written informed consent was obtained from all volunteers. The study was approved by the […] Research and Ethics Committee. Subjects' cough response to citric acid challenge test was studied on three separate occasions (separated at least 7 days apart) following administration of (i) placebo; (ii) 40.5 mg dextromethorphan hydrobromide; (iii) 44.6 mg of dextrorphan‐D‐tartrate. The order of treatments (placebo, DEX, and DOR) was randomized across participants using a balanced Latin square design to ensure equal distribution of sequence effects. Blood samples for PK analysis were taken periodically (at 0, 1, 2, 3, 4, 5, 6, 8, 10, 12, and 24 h post administration of DEX and DOR).
Plasma concentrations of DEX and unconjugated DOR were determined using high‐performance liquid chromatography with fluorometric detection according to the method of Chen et al.[25] The intra‐assay coefficient of variation for these analyses at a concentration of 2.5 ng/mL ranged from 6% to 13%. The lower limits of quantification were determined to be 0.3 ng/mL for DOR and 0.5 ng/mL for DEX.
The percent of change in cough number relative to the baseline (t = 0) was plotted against time and the maximum reduction in cough response (Emax) and its […] (TEmax) were determined. The area under the percent of reduction in cough number against time between 0 until 24 h (AUEC0‐24 h) was calculated using the trapezoidal rule. The correlation between AUEC0‐24 h and area under plasma concentration time between zero and 24 h (AUC0‐24 h) of DEX, (endogenously) formed DOR and directly administered DOR was statistically examined using Spearman rank correlation test. The Friedman test (followed by Dunn's multiple comparison) was used to compare the AUC values of DEX and DOR, as well as the AUEC values, between the different arms of the study.

[2] = system: cough response to citric acid challenge; experiment: PK-PD effect compartment link model of cough response; type: in vivo, human; conditions: for Between‐subject variability of ke0: PKPD model
Procedure: Pharmacokinetic/pharmacodynamic analysis (PKPD) of DEX and DOR was conducted using non‐linear mixed effects modelling with Monolix software, 2024R1 (Lixoft SAS, Antony, France). The analysis followed a sequential approach, where the PK parameters of both compounds were estimated initially, and then these were used alongside the cough data to build the PK/PD model. The model components are described below:
The cough response (number of coughs) of the placebo arm of the study was described by the following equation that has been reported in a previous study[27] with some minor modifications: EPlacebo=Baselinecough×scale×k×e^−k×t in which EPlacebo is the placebo effect, BaselineCough is the number of coughs at time (t) zero (before administration of any of the drugs or placebo), scale is the constant of the magnitude of the cough response, and k is the first‐order rate constant for nonlinear suppression of the cough response and return to the baseline. The distribution of all parameters was assumed to be log normal. A constant error model was used to describe intra‐individual variability.
An effect compartment model in which ke0 (DEX) and ke0 (DOR) are the effect‐site equilibration rate constants for DEX and DOR, respectively, was used to link the plasma concentrations of DEX and DOR to the combined effect of the two moieties at the same receptor. This combined effect is described by the following equation: E=EPlacebo×1−Imax×CeDEX/IC50+CeDOR×Pot/IC50^n/1+CeDEX/IC50+CeDOR×Pot/IC50^n in which I max is the maximum antitussive effect, IC50 the concentration of drugs that results in half of the maximum effect, Pot is the relative potency of DOR to DEX and CeDEX and CeDOR are the effect compartment concentrations of DEX and DOR, respectively.[23] Log‐normal distribution model was used to describe the inter‐individual variability of the model parameters and intra‐individual variability was described by a constant error model.

[3] = system: antitussive effect (cough); set-up: method as in PMID 12848776; conditions: cited from earlier work
[4] = animal study; cited from earlier work
[5] = cited from earlier work
[6] = plasma, mean, plasma, the administered compound itself (40.5 mg DEX HBr or 44.6 mg DOR-D-tartrate), unconjugated DOR, read-out: AUC0‐24 h, mean
[7] = plasma, mean, plasma, the administered compound itself (40.5 mg DEX HBr or 44.6 mg DOR-D-tartrate), unconjugated DOR, read-out: Cmax, mean
[8] = plasma, mean, plasma, the administered compound itself (40.5 mg DEX HBr or 44.6 mg DOR-D-tartrate), unconjugated DOR, read-out: Tmax, mean
[9] = plasma, median, plasma, the administered compound itself, read-out: AUC0‐24 h, median
[10] = plasma, median, plasma, the administered compound itself, read-out: Tmax, median
[11] = population estimate, common parameter of the combined DEX+DOR effect model

Structure (SMILES) | 24‐h plasma concentration [1] | AUC [1, 6] [ng·h/mL] | Cmax [1, 7] [ng/mL] | Tmax [1, 8] [h] | AUC [1, 9] [ng·h/mL] | Tmax [1, 10] [h] | Between‐subject variability of ke0 [2] [CV%] | ke0, transfer rate constant from the central to the effect compartment ([2]; population estimate) [h⁻¹] | other results
COc1ccc2c(c1)[C@]13CCCC[C@@H]1[C@H](C2)N(C)CC3 [DEX, dextromethorphan] | below the limit of quantitation | 26.7 | 3.5 | 1.8 | 16.7 | 1 | 176 | 0.08 | Cmax, median ([1]; median, plasma, the administered compound itself): 2.2 ng/mL
CN1CC[C@@]23CCCC[C@@H]2[C@@H]1Cc1ccc(O)cc13 [DOR, dextrorphan] | below the limit of quantitation | 17.4 | 4.1 | 1.1 | 18.9 | 1 | 171 | 0.02 | Relative potency of DOR compared to DEX ([3]; modelling of quinidine interaction study, no separate DOR arm): 38%; IC50 ([3]; total concentration of DOR (conjugated with glucuronic acid and unconjugated)): 3.2 ng/mL (≈ 0.0124 µM); Antitussive activity [4]: good antitussive activity comparable to that of DEX; Tolerability compared with DEX [4]: better tolerability; Toxicity compared with DEX [4]: lower toxicity; Water solubility [5]: > 10000 µg/mL; Cmax and Tmax of formed DOR compared with direct administration of DOR ([1]; Friedman and Dunn's tests): not statistically different; AUC0−24 h of formed DOR (from DEX metabolism) compared with direct administration of DOR ([1]; Friedman and Dunn's tests, P‐value = .003, higher molar dose of DOR than of DEX): significantly higher; Cmax ([1]; plasma, median, plasma, the administered compound itself, read-out: Cmax, median): 3.8 ng/mL; Plasma concentration of DOR relative to DEX after administration of DEX ([1]; majority of measurement times): up to twofold higher; Maximum cough inhibition (Imax) ([2]; model-based estimate, as percent): 23%; Relative potency of DOR to DEX ([2]; population estimate, as fraction): 0.26; Imax, the maximum antitussive effect (fraction of the baseline) [2, 11]: 0.23; N, Hill coefficient [2, 11]: 2.8
